This is an account of results in patent US20230190933A1, “Immunologically Active Peptide-Biliverdin Conjugate, Preparation Method Therefor and Application Thereof” (priority 2020, published 2023).

Where no end group is shown, it is not given here.

Data set [1] has as its system in-situ model of pancreatic cancer Pan02. Particulars: 4 mg kg^-1, presence and absence of light (730 nm, 0.5 W/cm^2), 15th day.
Data set [2] is described as follows: temperature rise in vitro under laser irradiation. The format is physicochemical. Particulars: 0.2 mg mL^-1, 730 nm laser, 0.3 W/cm^2, 10 min. Here is the method:
Firstly, biliverdin-Mn metal complex was chemically synthesized by biliverdin and excess manganese acetate tetrahydrate, and the biliverdin-Mn-[…] conjugate was prepared from biliverdin-Mn metal complex and […] according to the aforementioned chemical synthesis method. […] 1 mL of this conjugate (at a concentration of 0.2 mg mL^-1) was irradiated at 730 nm laser (0.3 W/cm^2) for 10 min, and the temperature rise of the conjugate solution was investigated.

Data set [3] has as its system mouse breast cancer cells 4T1. Particulars: absence of light; 100 uL of 0.2 mg mL^-1 intraperitoneally on day 1, 2, 4, 8; 28 days.
The test system of data set [4] is lung cancer Lewis. Nature of the data set: combination of photothermal immunotherapy and immunotherapy (interferon). The format is in vivo. Particulars: conjugate 3 mg kg^-1 combined with interferon 20U/ mouse, initial volume 300 mm^3. The protocol:
(§1) The biliverdin-[…] conjugate was prepared from biliverdin molecule and […] according to the above chemical synthesis method.

The subject of data set [5] is skin melanoma B16-F10. Described as above. Particulars: conjugate 3 mg kg^-1 combined with interferon 20U/ mouse, initial volume 300 mm^3. The format is in vivo. The protocol: as §1
Data set [6] relates to cervical cancer U14 mouse model. Particulars: 5 mg kg^-1 intraperitoneally; 2nd, 4th and 7th day.
In data set [7] the test system is mouse colon cancer cells ct-26.
Method: According to the standard tumor mouse modeling method, C57BL/6 mouse model was established, and the mouse colon cancer cells ct-26 were inoculated subcutaneously, and then these mice were fed in SPF environment. […] The mice were divided into the following four groups: blank group (normal saline), conjugate group (no light group) and conjugate group (light group), with 10 mice in each group. These mice were administered once on the 1st, 3rd, 8th and 12th day with the administration concentration being 2 mg kg^-1. Wherein, the mice of the conjugate (light group) were irradiated with laser once 4 hours after administration on the first day, and the parameters were as follows: the laser intensity was 0.5 W/cm^2 and the laser wavelength was 808 nm. The tumor inhibition of mice during the whole treatment cycle (the cycle is 45 days) was monitored.
The nature of data set [8]: cyclic (three) photothermal heating curves. The format is physicochemical. The note with it: compared with biliverdin molecule; three heating cycles.
Data set [9] relates to Human Umbilical Vein Endothelial Cells HUVEC. The data set is described as follows: MTT colorimetric method, incubation in the dark. The format is cell-based. Particulars: different concentration gradients. The protocol: The biliverdin-[…] conjugate was prepared from biliverdin molecule and […] according to the chemical synthesis method of Example 1. […] The prepared conjugates with different concentration gradients were incubated with Human Umbilical Vein Endothelial Cells HUVEC in the dark, and the biological safety of the conjugates was evaluated by MTT colorimetric method.
A general note: Tetrazolium dyes change colour on reduction, which living cells bring about.

As to “biliverdin-Ga-FKFEFKFE conjugate [Example 10]”, in [1], the “immune promoting factor content in tumor (IFN-7)” value was “up-regulate the organism’s immunity”; the “immune suppressing factor content in tumor (IL-4 and IL-10)” value was “down-regulate the immunosuppressive behavior”.
For the substance “biliverdin-Mn-YLEPGPVTA conjugate [Example 7]”, the “photo-thermal conversion effect (temperature rise)” value in [2] was “good photo-thermal conversion effect”.
Turning to “biliverdin-IMDQVPFSV conjugate [Example 8]”, in [3], the “anti-tumor behavior (tumor volume)” value is on record as “potential immune anti-tumor activity”.
Consider “biliverdin-PDRAHYNI conjugate [Example 15]”, for which the “combined inhibitory effect on tumor” value in data set [4] and in [5] was “significantly enhances the anti-tumor effect” in each case.
As to “biliverdin-EQLESIINFEKLTE conjugate [Example 13]”, the “immune effect (CD4+T and CD8+T cells in spleen and draining lymph nodes)” value in [6] is on record as “has immune effect”.
For the substance “biliverdin-QQKFQFQFEQQ conjugate [Example 9]”, in data set [7] (2 mg kg^-1 on day 1, 3, 8, 12, 45 day cycle), the “therapeutic effect of tumor photothermal immunotherapy (tumor inhibition curve)” value is recorded as “good therapeutic effect”. Also, the tumor clearance entry in [7] (light group, 2 mg kg^-1, 808 nm 0.5 W/cm^2, 29th day after treatment) was “all the mice tumors were cleared”. Further, the tumor recurrence result in data set [7] (light group, monitored from the 30th day to the 45th day) is “can effectively prevent tumor recurrence”.
With “biliverdin-SIINFEKL conjugate [Example 1]”, in data set [8], the “cyclic stability of photothermal heating” value is “better cyclic stability” and the photothermal heating effect result is recorded as “better heating effect”. Moreover, the “cytotoxicity (cell activity)” value in data set [9] is reported as “no obvious cytotoxicity”.
